# Measured values published in patent publication US12121503B2, “Antiviral treatments” (priority 2006, dated 2024).
# Where “and” joins values, the source holds several entries; their conditions need not be identical. Equal values may be shown once. Marks after values point to notes of the source that are not given here.
# Legend:
# influenza infection = conditions: oral administration over a period of days; cited from earlier work
# influenza virus [1] = conditions: cited from earlier work
# [2] = Toxicity controls: uninfected mice treated in parallel; conditions: for Tox Controls Surv/Total: 21 days
# influenza virus [3] = conditions: cited from earlier work; remark: listed apart in the source
# [4] = Phase I clinical study in healthy human volunteers, plasma concentration after intravenous and intramuscular administration
# [5] = system: Influenza A/Duck/MN/152518 (H5N1); format: in vivo, BALB/c mice
# [6] = Plasma levels after i.v. administration in mice
# [7] = intramuscular, healthy human volunteers
smiles,measurement,setting,value
"CCC(CC)C(NC(C)=O)[C@@H]1[C@H](O)[C@@H](C(=O)O)C[C@H]1NC(=N)N (stereo partly drawn) [Peramivir, (1S,2S,3R,4R)-3-(1-Acetamido-2-ethylbutyl)-4-guanidino-2-hydroxycyclopentane-carboxylic acid]",Therapeutic effect on influenza infection in humans,influenza infection,suboptimal therapeutic effect
same,Activity against the influenza virus in vitro,influenza virus [1],marked activity
same,Tox Controls Surv/Total,[2]; 3 mg/kg i.v.,3/3
same,Tox Controls Surv/Total,[2]; 10 mg/kg i.v.,3/3
same,Tox Controls Surv/Total,[2]; 20 mg/kg i.v.,3/3
same,Survival and weight of toxicity controls,"[2]; i.v., run in parallel",all survived and gained weight
same,Tolerability in toxicity controls,"[2]; i.v., run in parallel",well tolerated
same,Activity against the influenza virus in experimentally infected mice,influenza virus [3],marked activity
same,half-life,"[4]; human, plasma, iv",> 12 h
same,Kinetics of plasma concentrations,[4]; [7],linear kinetics
same,Plasma half life,[4]; [7],unusually extended
same,Kinetics of plasma concentrations,"[4]; intravenous, healthy human volunteers",linear kinetics
same,"Infected, Treated Mice Surv/Total",[5]; 21 days,10/10** and 5/10
same,Effect on lung parameters,"[5]; mouse, in vivo",moderately inhibitory
same,Infected animals surviving the infection,"[5]; mouse, in vivo",100%
same,"Protection of mice (prevention of deaths, lessening of lung consolidation, inhibition of lung virus titers)","[5]; mouse, in vivo",significantly protective
same,Time at relatively high levels in the plasma,[6],at least 6 hours
